The assay concerns HT-1080 (ATCC, CCL-121) cells. The experiment in a line: HT-1080 cell viability assay with ferroptosis inducer RSL3 (Cell Titer-Glo). The class given is cell-based. Particulars: HT-1080 cells treated with RSL3, 3-fold, 10-point dilution, 1.1 μM highest concentration, read-out: EC50 (nM), ferroptosis inhibitory activity. In a few lines: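 HT-1080 cells (6000 per well) were cultured overnight at 37 °C, then co-treated with RSL3 and compound in a 3-fold, 10-point series topping at 1.1 μM. Viability was read by CellTiter-Glo luminescence and normalized to untreated controls. EC50 came from a sigmoidal non-linear regression fit.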
(In general: ATP-based viability assays read luminescence as a measure of living cells.)

Like-named read-outs stand apart in the source and are kept apart here.

`CN1Cc2cc(Nc3ccc(N4CCCC(C(F)(F)F)C4)cc3)ccc2C1=O` (stereo not shown) [Compound 242, 2-methyl-5-((4-(3-(trifluoromethyl)piperidin-1-yl)phenyl)amino) isoindolin-1-one]: for the setting “Homo sapiens, Table 2”, the EC50 (as a rule, the concentration at which the effect is half-maximal) lay within 0.1 to 100 nM. On to `COC1(C(F)(F)F)CN(c2ccc(Nc3ccc4c(c3)OCCC(=O)N4)c(C)c2)C1` [Compound 645, 8-[4-[3-methoxy-3-(trifluoromethyl)azetidin-1-yl]-2-methyl-anilino]-3,5-dihydro-2H-1,5-benzoxazepin-4-one], for which the EC50 (Homo sapiens, Table 3) was 0.1 to 100 nM. As for `CNCCCn1c(=O)oc2ccc(Nc3ccc(N4CC(C)OC(C)C4)cc3)cc21` (stereo not shown) [Compound 416], the EC50 (Homo sapiens, Table 2) fell in the range of 0.1 to 100 nM. Consider `Cc1cc(N2CCC(C(F)F)CC2)ccc1Nc1ccc2c(c1)OCC(=O)N2` [Compound 654, 7-[4-[4-(difluoromethyl)-1-piperidyl]-2-methyl-anilino]-4H-1,4-benzoxazin-3-one], for which, under “Homo sapiens, Table 3”, the EC50 fell in the range of 0.1 to 100 nM.

In the case of `CC1CN(c2c(F)cc(Nc3ccc4c(c3)OCC(=O)N4)cc2F)CC(C)O1` (stereo not shown) [Compound 159, 7-((4-(2,6-dimethylmorpholino)-3,5-difluorophenyl)amino)-2H-benzo[b][1,4]oxazin-3(4H)-one], for the setting “Homo sapiens, Table 2”, the EC50 was in the range of 0.1 to 100 nM. Take `CN1C(=O)COc2cc(Nc3ccc(N4CCC(C(F)(F)F)CC4)c(F)c3)ccc21` [Compound 77, 7-((3-fluoro-4-(4-(trifluoromethyl)piperidin-1-yl)phenyl)amino)-4-methyl-2H-benzo[b][1,4]oxazin-3(4H)-one]: the 50% effective concentration (EC50) (Homo sapiens, Table 2) was 0.1 to 100 nM. `Cc1cc(N2CCC2)ccc1Nc1ccc2c(c1)OCCC(=O)N2` [Compound 586, 8-((4-(azetidin-1-yl)-2-methylphenyl)amino)-2,3-dihydrobenzo[b][1,4]oxazepin-4(5H)-one]: the 50% effective concentration (EC50) (Homo sapiens, Table 3) lay within 0.1 to 100 nM. Consider `CC1CCN(c2ccc(Nc3ccc4c(=O)n(C)[nH]c4c3)cc2)CC1` [Compound 251, 2-methyl-6-((4-(4-methylpiperidin-1-yl)phenyl)amino)-1,2-dihydro-3H-ind azol-3-one], for which, for the setting “Homo sapiens, Table 2”, the EC50 fell in the range of 0.1 to 100 nM. For `CN1Cc2ccc(Nc3ccc(N4CCC(C(F)(F)F)CC4)cc3)cc2C1=O` [Compound 171, 2-methyl-6-((4-(4-(trifluoromethyl)piperidin-1-yl)phenyl)amino) isoindolin-1-one], where the note is “Homo sapiens, Table 2”, the EC50 lay in the range of 0.1 to 100 nM.

As for `COCCN1C(=O)COc2cc(Nc3ccc(N4CCC(C(F)(F)F)CC4)cc3)ccc21` [Compound 11, 4-(2-methoxyethyl)-7-((4-(4-(trifluoromethyl)piperidin-1-yl)phenyl)amino)-2H-benzo[b][1,4]oxazin-3(4H)-one], the EC50 (Homo sapiens, Table 2) lay within 0.1 to 100 nM. `Cc1cc(N2CCC(C(F)(F)F)CC2)ccc1Nc1ccc2c(c1)CNC2` [Compound 544, N-(2-methyl-4-(4-(trifluoromethyl)piperidin-1-yl)phenyl)isoindolin-5-amine]: for the setting “Table 3”, the EC50 lay within 0.1 to 100 nM.

In the case of `CC1CN(c2ccc(Nc3ccc4c(c3)OCC(=O)N4C)cc2N(C)C)CC(C)O1` (stereo not shown) [Compound 20, 7-((3-(dimethylamino)-4-(2,6-dimethylmorpholino)phenyl)amino)-4-methyl-2H-benzo[b][1,4]oxazin-3(4H)-one], the EC50 (Homo sapiens, Table 2) lay in the range of 0.1 to 100 nM. With `CCN(CCCOC)c1ccc(Nc2ccc3c(c2)n(C)c(=O)n3C)cc1` [Compound 262, 5-((4-(ethyl(3-methoxypropyl)amino)phenyl)amino)-1,3-dimethyl-1,3-dihydro-2H-benzo[d]imidazol-2-one], the EC50 (Homo sapiens, Table 2) is 0.1 to 100 nM. On the same count and under the same terms, then `CN1Cc2cc(Nc3ccc(N(C)C)nc3)ccc2C1=O` [Compound 235, 5-((6-(dimethylamino)pyridin-3-yl)amino)-2-methylisoindolin-1-one], with 0.1 to 100 nM. Regarding `CN1C(=O)COc2cc(Nc3ccc(N4CCC(C(F)(F)F)CC4)cc3Cl)ccc21` [Compound 451, 7-((2-chloro-4-(4-(trifluoromethyl)piperidin-1-yl)phenyl)amino)-4-methyl-2H-benzo[b][1,4]oxazin-3(4H)-one], the EC50 (Homo sapiens, Table 3) is 0.1 to 100 nM.

Turning to `Cc1cc(N2CCC(F)C2)ccc1Nc1ccc2c(c1)OCC(=O)N2` (stereo not shown) [Compound 599, 7-{[4-(3-fluoropyrrolidin-1-yl)-2-methylphenyl]amino}-2,4-dihydro-1,4-benzoxazin-3-one], for the setting “Homo sapiens, Table 3”, the EC50 is 0.1 to 100 nM. The same measure, in the same setting: then `Cc1cc(N2CCC(C(F)(F)F)CC2)ccc1Nc1ccc2[nH]c(=O)[nH]c2c1` [Compound 513, 5-((2-methyl-4-(4-(trifluoromethyl)piperidin-1-yl)phenyl)amino)-1,3-dihydro-2H-benzo[d]imidazol-2-one], with 0.1 to 100 nM.

Take `Cc1cc(N2CC(C)OC(C)C2)ccc1Nc1cc(F)c2c(c1)OCC(=O)N2C` (stereo not shown) [Compound 141, ((4-(2,6-dimethylmorpholino)-2-methylphenyl)amino)-5-fluoro-4-methyl-2H-benzo[b][1,4]oxazin-3(4H)-one]: under “Homo sapiens, Table 2”, the EC50 was 0.1 to 100 nM.

Take `CC1CC(c2ccc(Nc3ccc4c(c3)OCC(=O)N4)cc2)CC(C)O1` (stereo not shown) [Compound 92, 7-((4-(2,6-dimethyltetrahydro-2H-pyran-4-yl)phenyl)amino)-2H-benzo[b][1,4]oxazin-3(4H)-one]: the EC50 (Homo sapiens, Table 2) was in the range of 0.1 to 100 nM. In the case of `CC1CCN(c2c(F)cc(Nc3ccc4c(c3)CN(C)C4=O)cc2F)CC1` [Compound 192, 5-((3,5-difluoro-4-(4-methylpiperidin-1-yl)phenyl)amino)-2-methylisoindolin-1-one], the EC50 (Homo sapiens, Table 2) fell in the range of 0.1 to 100 nM. In the case of `COc1ccc(Nc2ccc3c(c2)n(C)c(=O)n3C)cn1` [Compound 320, 5-((6-methoxypyridin-3-yl)amino)-1,3-dimethyl-1,3-dihydro-2H-benzo[d] imidazol-2-one], the EC50 (Homo sapiens, Table 2) was 0.1 to 100 nM. Regarding `CC1CN(c2ccc(Nc3ccc4c(c3)nnn4C)cc2)CC(C)O1` (stereo not shown) [Compound 207, N-(4-(2,6-dimethylmorpholino)phenyl)-1-methyl-1H-benzo[d][1,2,3]triazol-5-amine], where the note is “Homo sapiens, Table 2”, the EC50 lay in the range of 0.1 to 100 nM. `CN1Cc2cc(Nc3ccc(N4CCC(C(F)(F)F)CC4)cc3)ccc2C1=O` [Compound 173, 2-methyl-5-((4-(4-(trifluoromethyl)piperidin-1-yl)phenyl)amino) isoindolin-1-one]: the concentration giving a half-maximal response (EC50) (Homo sapiens, Table 2) was in the range of 0.1 to 100 nM. On to `CCC1Oc2cc(Nc3ccc(C4CCOCC4)cc3)ccc2N(C)C1=O` (stereo not shown) [Compound 472, 2-ethyl-4-methyl-7-((4-(tetrahydro-2H-pyran-4-yl)phenyl)amino)-2H-benzo[b][1,4]oxazin-3(4H)-one], for which, for the setting “Homo sapiens, Table 3”, the EC50 was in the range of 0.1 to 100 nM. For `CN1CCC(N2Cc3cc(Nc4ccc(N5CCC(C)(C)CC5)cc4)ccc3C2=O)CC1` [Compound 247, 5-((4-(4,4-dimethylpiperidin-1-yl)phenyl)amino)-2-(1-methylpiperidin-4-yl)isoindolin-1-one], the EC50 (Homo sapiens, Table 2) was in the range of 0.1 to 100 nM.

For `Cn1c(=O)n(C)c2cc(Nc3ccc(C(=O)N4CCCC4)cc3)ccc21` [Compound 292, 1,3-dimethyl-5-((4-(pyrrolidine-1-carbonyl)phenyl)amino)-1,3-dihydro-2H-benzo[d]imidazol-2-one], the EC50 (Homo sapiens, Table 2) lay in the range of 1000 to 10000 nM. Turning to `FC(F)(F)C1CCN(c2ccc(Nc3ccc4cn[nH]c4c3)cc2)CC1` [Compound 366, N-(4-(4-(trifluoromethyl)piperidin-1-yl)phenyl)-1H-indazol-6-amine], under “Homo sapiens, Table 2”, the EC50 was 0.1 to 100 nM.

For `Cc1cc(N2CC(C)OC(C)C2)ccc1Nc1ccc2c(c1)OCC(=O)N2` (stereo not shown) [Compound 96], for the setting “Homo sapiens, Table 2”, the EC50 lay within 0.1 to 100 nM. As for `Cn1c(=O)cnc2cc(Nc3ccc(N4CCC(C(F)(F)F)CC4)cc3)ccc21` [Compound 111, 1-methyl-6-((4-(4-(trifluoromethyl)piperidin-1-yl)phenyl)amino) quinoxalin-2(1H)-one], the EC50 (Homo sapiens, Table 2) was in the range of 0.1 to 100 nM. With `NC(=O)CCn1cc2cc(Nc3ccc(N4CCC(C(F)(F)F)CC4)cc3)ccc2n1` [Compound 413, 3-(5-((4-(4-(trifluoromethyl)piperidin-1-yl)phenyl)amino)-2H-indazol-2-yl)propanamide], under “Homo sapiens, Table 2”, the EC50 was 0.1 to 100 nM. Same read-out and setting: then `CC1CCC(C)N1c1ccc(Nc2ccc3c(c2)n(C)c(=O)n3C)cc1` (stereo not shown) [Compound 254, 5-((4-(2,5-dimethylpyrrolidin-1-yl)phenyl)amino)-1,3-dimethyl-1,3-dihydro-2H-benzo[d]imidazol-2-one], with 0.1 to 100 nM; and `CN1C(=O)COc2cc(Nc3ccc(N4CCC(C(F)(F)F)CC4)cc3)cnc21` [Compound 75, 4-methyl-7-((4-(4-(trifluoromethyl)piperidin-1-yl)phenyl)amino)-2H-pyrido[3,2-b][1,4]oxazin-3(4H)-one], with 0.1 to 100 nM; and `CC1CN(c2ccc3cc(Nc4ccc5c(c4)OCC(=O)N5C)ccc3n2)CC(C)O1` (stereo not shown) [Compound 65, 7-((2-(2,6-dimethylmorpholino)quinolin-6-yl)amino)-4-methyl-2H-benzo[b][1,4]oxazin-3(4H)-one], with 0.1 to 100 nM. As for `Cc1cc(N2CC(C)OC(C)C2)ccc1Nc1ccc2c(c1)c(C(N)=O)cn2C` (stereo not shown) [Compound 444, 5-((4-(2,6-dimethylmorpholino)-2-methylphenyl)amino)-1-methyl-1H-indole-3-carboxamide], the EC50 (Homo sapiens, Table 2) lay in the range of 0.1 to 100 nM.

As for `Cn1c(=O)n(C)c2cc(Nc3ccc(N4CCC(CF)CC4)cc3)ccc21` [Compound 385, 5-((4-(4-(fluoromethyl)piperidin-1-yl)phenyl)amino)-1,3-dimethyl-1,3-dihydro-2H-benzo[d]imidazol-2-one], the EC50 (Homo sapiens, Table 2) fell in the range of 0.1 to 100 nM. In the case of `COc1cc(N2CCC(C(F)(F)F)CC2)ccc1Nc1ccc2c(c1)OCC(=O)N2` [Compound 516, 7-((2-methoxy-4-(4-(trifluoromethyl)piperidin-1-yl)phenyl)amino)-2H-benzo[b][1,4]oxazin-3(4H)-one], where the note is “Homo sapiens, Table 3”, the EC50 is 0.1 to 100 nM. Consider `Cc1cc(N2CCC(C(F)(F)F)CC2)ccc1Nc1ccc2c(c1)OCCC(=O)N2C` [Compound 594, 5-methyl-8-((2-methyl-4-(4-(trifluoromethyl)piperidin-1-yl)phenyl)amino)-2,3-dihydrobenzo[b][1,4]oxazepin-4(5H)-one], for which the EC50 (Homo sapiens, Table 3) was 0.1 to 100 nM.

The values above are taken from US20240327393A1 (SIRONAX LTD., priority 2021, published 2024).
